Measurements taken from patent US20240327393A1 (SIRONAX LTD., priority 2021, published 2024).

Test system: HT-1080 (ATCC, CCL-121) cells
Assay: HT-1080 cell viability assay with ferroptosis inducer RSL3 (Cell Titer-Glo)
Assay type: cell-based
Conditions: Homo sapiens; HT-1080 cells treated with RSL3; 3-fold, 10-point dilution, 1.1 μM highest concentration; Table 2; read-out: EC50 (nM), ferroptosis inhibitory activity
Procedure, shortened: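 HT-1080 cells (6000 per well) were cultured overnight at 37 °C, then co-treated with RSL3 and compound in a 3-fold, 10-point series topping at 1.1 μM. Viability was read by CellTiter-Glo luminescence and normalized to untreated controls. EC50 came from a sigmoidal non-linear regression fit.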

Row | SMILES | EC50 [nM]
1 | CC1CCN(c2ccc(Nc3ccc4c(c3)C(C)(C)CN4C)cc2)CC1 [Compound 311, 1,3,3-trimethyl-N-(4-(4-methylpiperidin-1-yl)phenyl)indolin-5-amine] | 0.1 to 100
2 | COc1cc(Nc2ccc3c(c2)n(C)c(=O)n3C)cc(OC)c1OC [Compound 312, 1,3-dimethyl-5-((3,4,5-trimethoxyphenyl)amino)-1,3-dihydro-2H-benzo[d]imidazol-2-one] | 0.1 to 100
3 | C/N=C1\c2ccc(Nc3ccc(N4CCC(C(F)(F)F)CC4)cc3)cc2CN1C [Compound 313, 2-methyl-1-(methylimino)-N-(4-(4-(trifluoromethyl)piperidin-1-yl)phenyl)isoindolin-5-amine] | 0.1 to 100
4 | Cn1nnc2ccc(Nc3ccc(N4CCC(C(F)(F)F)CC4)cc3)cc21 [Compound 314, 1-methyl-N-(4-(4-(trifluoromethyl)piperidin-1-yl)phenyl)-1H-benzo[d][1,2,3]triazol-6-amine] | 0.1 to 100
5 | Cn1c(=O)oc2cc(Nc3ccc(N4C[C@H]5CC[C@@H]4C5)cc3)ccc21 [Compound 315, 6-((4-((1R,4S)-2-azabicyclo[2.2.1]heptan-2-yl)phenyl)amino)-3-methylbenzo[d] oxazol-2(3H)-one] | 0.1 to 100
6 | Cn1c(=O)oc2cc(Nc3ccc(N4CC5(CCCC5)C4)cc3)ccc21 [Compound 316, 6-((4-(2-azaspiro[3.4]octan-2-yl)phenyl)amino)-3-methy/benzo[d]oxazol-2′3H-one] | 0.1 to 100
7 | CC1CN(c2ccc(Nc3ccc4c(c3)oc(=O)n4C)cc2)CC(C)O1 (stereo not shown) [Compound 317, 6-((4-(2,6-dimethylmorpholino)phenyl)amino)-3-methylbenzo[d]oxazol-2(3H)-one] | 0.1 to 100
8 | COCCOc1ccc(Nc2ccc3c(c2)n(C)c(=O)n3C)cc1 [Compound 318, 5-((4-(2-methoxyethoxy)phenyl)amino)-1,3-dimethyl-1,3-dihydro-2H-benzo[d] imidazol-2-one] | 0.1 to 100
9 | COc1ncc(Nc2ccc3c(c2)n(C)c(=O)n3C)cn1 [Compound 319, 5-((2-methoxypyrimidin-5-yl)amino)-1,3-dimethyl-1,3-dihydro-2H-benzo[d] imidazole-2-one] | 0.1 to 100
10 | COc1ccc(Nc2ccc3c(c2)n(C)c(=O)n3C)cn1 [Compound 320, 5-((6-methoxypyridin-3-yl)amino)-1,3-dimethyl-1,3-dihydro-2H-benzo[d] imidazol-2-one] | 0.1 to 100
11 | CC1CCN(c2ccc(Nc3ccc4nnn(C)c4c3)cc2)CC1 [Compound 321, 1-methyl-N-(4-(4-methylpiperidin-1-yl)phenyl)-1H-benzo[d][1,2,3]triazol-6-amine] | 0.1 to 100
12 | Cc1nc2ccc(Nc3ccc(N4CCC(C(F)(F)F)CC4)cc3)cc2o1 [Compound 323, 2-methyl-N-(4-(4-(trifluoromethyl)piperidin-1-yl)phenyl)benzo[d]oxazol-6-amine] | 0.1 to 100
13 | Cn1c(=O)oc2cc(Nc3ccc(N4CC(C)(C)C4)cc3)ccc21 [Compound 324, 6-((4-(3,3-dimethylazetidin-1-yl)phenyl)amino)-3-methylbenzo[d]oxazol-2(3H)-one] | 0.1 to 100
14 | CC1CCC(C)N1c1ccc(Nc2ccc3c(c2)oc(=O)n3C)cc1 (stereo not shown) [Compound 325, 6-((4-(2,5-dimethylpyrrolidin-1-yl)phenyl)amino)-3-methylbenzo[d]oxazol-2(3H)-one] | 0.1 to 100
15 | Cc1cc(Nc2ccc(N3CCC(C(F)(F)F)CC3)cc2)cc2c1C(=O)N(C)C2 [Compound 326, 2,7-dimethyl-5-((4-(4-(trifluoromethyl)piperidin-1-yl)phenyl)amino) isoindolin-1-one] | 0.1 to 100
16 | Cn1c(=O)oc2cc(Nc3ccc(N4CC5(CCC5)C4)cc3)ccc21 [Compound 327, 6-((4-(2-azaspiro[3.3]heptan-2-yl)phenyl)amino)-3-methylbenzo[d]oxazol-2(3H)-one] | 0.1 to 100
17 | CCn1c(=O)n(CC)c2cc(Nc3ccc(N4CCC(C)CC4)cc3)ccc21 [Compound 328, 1,3-diethyl-5-((4-(4-methylpiperidin-1-yl)phenyl)amino)-1,3-dihydro-2H-benzo[d]imidazol-2-one] | 0.1 to 100
18 | CC1CCN(c2ccc(Nc3ccc4c(ccn4C)c3)cc2)CC1 [Compound 329, 1-methyl-N-(4-(4-methylpiperidin-1-yl)phenyl)-1H-indol-5-amine] | 0.1 to 100
19 | CC1CCN(c2ccc(Nc3ccc4ccn(C)c4c3)cc2)CC1 [Compound 330, 1-methyl-N-(4-(4-methylpiperidin-1-yl)phenyl)-1H-indol-6-amine] | 0.1 to 100
20 | Cn1cnc2cc(Nc3ccc4c(c3)n(C)c(=O)n4C)ccc21 [Compound 331, 1,3-dimethyl-5-((1-methyl-1H-benzo[d]imidazol-5-yl)amino)-1,3-dihydro-2H-benzo[d]imidazol-2-one] | 100 to 1000

Row | SMILES | EC50 [nM]
21 | Cn1c(=O)n(C)c2cc(Nc3ccc(N4CCC(O)(C(F)(F)F)CC4)cc3)ccc21 [Compound 332, 5-((4-(4-hydroxy-4-(trifluoromethyl)piperidin-1-yl)phenyl)amino)-1,3-dimethyl-1,3-dihydro-2H-benzo[d]imidazol-2-one] | 0.1 to 100
22 | Cn1c(=O)oc2cc(Nc3ccc(N4CCC(O)(C(F)(F)F)CC4)cc3)ccc21 [Compound 333, 6-((4-(4-hydroxy-4-(trifluoromethyl)piperidin-1-yl)phenyl)amino)-3-methylbenzo[d]oxazol-2(3H)-one] | 0.1 to 100
23 | COCCn1c(=O)n(C)c2ccc(Nc3ccc(N4CCC(C(F)(F)F)CC4)cc3)cc21 [Compound 334, 3-(2-methoxyethyl)-1-methyl-5-((4-(4-(trifluoromethyl)piperidin-1-yl)phenyl)amino)-1,3-dihydro-2H-benzo[d]imidazol-2-one] | 0.1 to 100
24 | CN1C(=O)C(C)(C)c2ccc(Nc3ccc(N4CCC(C(F)(F)F)CC4)cc3)cc21 [Compound 335, 1,3,3-trimethyl-6-((4-(4-(trifluoromethyl)piperidin-1-yl)phenyl)amino) indolin-2-one] | 0.1 to 100
25 | Cn1cnc2cc(Nc3ccc(N4CCC(C(F)(F)F)CC4)cc3)ccc21 [Compound 336, 1-methyl-N-(4-(4-(trifluoromethyl)piperidin-1-yl)phenyl)-1H-benzo[d]imidazol-5-amine] | 0.1 to 100
26 | FC(F)(F)C1CCN(c2ccc(Nc3ccc4occc4c3)cc2)CC1 [Compound 337, N-(4-(4-(trifluoromethyl)piperidin-1-yl)phenyl)benzofuran-5-amine] | 0.1 to 100
27 | CC1CCN(c2ccc(Nc3ccc4c(c3)N(C)CC4(C)C)cc2)CC1 [Compound 338, 1,3,3-trimethyl-N-(4-(4-methylpiperidin-1-yl)phenyl)indolin-6-amine] | 0.1 to 100
28 | Cc1nc2ccc(Nc3ccc(N4CCC(C)CC4)cc3)cc2o1 [Compound 339, 2-methyl-N-(4-(4-methylpiperidin-1-yl)phenyl)benzo[d]oxazol-6-amine] | 0.1 to 100
29 | C/N=c1\n(C)c2ccc(Nc3ccc(N4CCC(C(F)(F)F)CC4)cc3)cc2n1C [Compound 340, 1,3-dimethyl-2-(methylimino)-N-(4-(4-(trifluoromethyl)piperidin-1-yl)phenyl)-2,3-dihydro-1H-benzo[d]imidazol-5-amine] | 0.1 to 100
30 | Cn1c(=O)n(C)c2cc(Nc3ccc(N4CCC(C)(O)CC4)cc3)ccc21 [Compound 341, 5-((4-(4-hydroxy-4-methylpiperidin-1-yl)phenyl)amino)-1,3-dimethyl-1,3-dihydro-2H-benzo[d]imidazol-2-one] | 0.1 to 100
31 | Cn1c(=O)n(C)c2cc(Nc3ccsc3)ccc21 [Compound 342, 1,3-dimethyl-5-(thiophen-3-ylamino)-1,3-dihydro-2H-benzo[d]imidazol-2-one] | 100 to 1000
32 | Cn1c(=O)n(C)c2ncc(Nc3ccc(N4CCC(C(F)(F)F)CC4)cc3)cc21 [Compound 343, 1,3-dimethyl-6-((4-(4-(trifluoromethyl)piperidin-1-yl)phenyl)amino)-1,3-dihydro-2H-imidazo[4,5-b]pyridin-2-one] | 0.1 to 100
33 | Cn1c(=O)oc2cc(Nc3ccc4c(c3)n(C)c(=O)n4C)ccc21 [Compound 344, 6-((1,3-dimethyl-2-oxo-2,3-dihydro-1H-benzo[d]imidazol-5-yl)amino)-3-methylbenzo[d]oxazol-2(3H)-one] | 0.1 to 100
34 | CC1CCN(c2ccc(Nc3ccc4c(c3)n(C)c(=N)n4C)cc2)CC1 [Compound 345, 2-imino-1,3-dimethyl-N-(4-(4-methylpiperidin-1-yl)phenyl)-2,3-dihydro-1H-benzo[d]imidazol-5-amine] | 0.1 to 100
35 | CN1CCOc2cc(Nc3ccc(N4CCC(C(F)(F)F)CC4)cc3)ccc2C1=O [Compound 346, 4-methyl-8-((4-(4-(trifluoromethyl)piperidin-1-yl)phenyl)amino)-3,4-dihydrobenzo[f][1,4]oxazepin-5(2H)-one] | 100 to 1000
36 | Cn1ccc2cc(Nc3ccc(N4CCC(C(F)(F)F)CC4)cc3)ccc21 [Compound 347, 1-methyl-N-(4-(4-(trifluoromethyl)piperidin-1-yl)phenyl)-1H-indol-5-amine] | 0.1 to 100
37 | Cn1ccc2ccc(Nc3ccc(N4CCC(C(F)(F)F)CC4)cc3)cc21 [Compound 348, 1-methyl-N-(4-(4-(trifluoromethyl)piperidin-1-yl)phenyl)-1H-indol-6-amine] | 0.1 to 100
38 | Cn1c(=O)oc2ccc(Nc3ccc(N4CCC(C(F)(F)F)CC4)cc3)cc21 [Compound 349, 3-methyl-5-((4-(4-(trifluoromethyl)piperidin-1-yl)phenyl)amino)benzo[d]oxazol-2(3)-one] | 0.1 to 100
39 | Cn1cnc2ccc(Nc3ccc(N4CCC(C(F)(F)F)CC4)cc3)cc21 [Compound 350, 1-methyl-N-(4-(4-(trifluoromethyl)piperidin-1-yl)phenyl)-1H-benzo[d]imidazol-6-amine] | 0.1 to 100
40 | FC(F)(F)C1CCN(c2ccc(Nc3ccc4ccoc4c3)cc2)CC1 [Compound 351, N-(4-(4-(trifluoromethyl)piperidin-1-yl)phenyl)benzofuran-6-amine] | 0.1 to 100
